Experimental data reported in patent US20170029355A1, “LABILE ESTERS OF AGROCHEMICALS FOR CONTROLLED RELEASE AND REDUCTION OF OFF-SITE MOVEMENT” (Monsanto Technology LLC, priority 2011, published 2017).

Assays:
[1] = tested on: morning glory; assay: Field testing of emulsifiable concentrates, post-emergent control (Example 38); format: in vivo; settings: for post-emergent control of morning glory compared with the dicamba salt, in words: 280 and 420 g dicamba acid equivalent per hectare; for % control, 280 g/ha, Morning glory: 280 g dicamba acid equivalent per hectare; for % control, 280 g/ha, Morning glory / % control, 420 g/ha, Morning glory: 11 or 21 days after treatment; for % control, 420 g/ha, Morning glory: 420 g dicamba acid equivalent per hectare
From the text: (§1) Four dicamba esters, 1a, 2, 9, and 13a, were formulated as emulsifiable concentrates for field testing. All formulations contained 5% each of a alkylbenzene sulfonate calcium salt (Huntsman NANSA EVM 62/H or Akzo Nobel WITCONATE P-1220 EH) and castor oil ethoxylate (Huntsman SURFONIC CO-54) as the emulsifiers and Aromatic 200 (Exxon) or monochlorobenzene (MCB) as the solvent.
(§2) The esters were compared to the diglycolamine salt of dicamba (CLARITY™) for post-emergent control of three broadleaf weeds: velvetleaf, morning glory, and hemp sesbania. Rates of 280 and 420 g dicamba acid equivalent per hectare were used. […] Evaluations were conducted at 11 or 21 days after treatment. Locations and timing were identical for all formulations tested.

[2] = tested on: velvetleaf; assay: as above; format: in vivo; settings: for post-emergent control of velvetleaf compared with the dicamba salt, in words: 280 and 420 g dicamba acid equivalent per hectare; for % control, 280 g/ha, Velvetleaf: 280 g dicamba acid equivalent per hectare; for % control, 280 g/ha, Velvetleaf / % control, 420 g/ha, Velvetleaf: 11 or 21 days after treatment; for % control, 420 g/ha, Velvetleaf: 420 g dicamba acid equivalent per hectare
From the text: as §1, §2

[3] = tested on: hemp sesbania; assay: as above; format: in vivo; settings: for post-emergent control of hemp sesbania compared with the dicamba salt, in words: 280 and 420 g dicamba acid equivalent per hectare; for % control, 280 g/ha, Hemp sesbania: 280 g dicamba acid equivalent per hectare; for % control, 280 g/ha, Hemp sesbania / % control, 420 g/ha, Hemp sesbania: 11 or 21 days after treatment; for % control, 420 g/ha, Hemp sesbania: 420 g dicamba acid equivalent per hectare
From the text: as §1, §2

[4] = tested on: Euphorbia species; assay: Field testing for post-emergent activity in the Southern Hemisphere (Example 39); format: in vivo; settings: 9 as suspension concentrate, other esters as emulsifiable concentrates
How it was run: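 Southern Hemisphere field trial, post-emergence application on Euphorbia weeds. Esters applied as emulsifiable concentrates in aromatic solvent with emulsifiers, one ester as a suspension concentrate. Dicamba diglycolamine salt served as comparator.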

[5] = In vitro dicamba photo-release from photo-labile dicamba esters, tetrahydrofuran solvent (Example 26); format: physicochemical; settings: THF, 0.1 mM ester; for Dark Control % dicamba: initial solution kept away from the light source, analyzed at conclusion of study
Method: This Example describes in vitro testing of dicamba photo-release by homogeneous solutions of photo-labile dicamba esters. The esters were dissolved in tetrahydrofuran (THF). Ester concentration was 0.1 mM. 25 ml of the solution was transferred to 22 mm tubes fabricated from graded seal quartz tubing with a 19/22 tapered seal at the top, which was closed with a tapered glass plug and secured with a plastic ring clamp. The solution was entirely below the quartz-to-glass transition, ensuring that the entire volume was exposed to the full spectrum.
The sealed tubes were placed in a Growth Chamber where they were exposed to simulated sunlight for 14 hours per day at 35° C. Dicamba concentrations in the solution were measured during the course of the photolysis.
A sample of the initial solution was reserved in a glass vial away from the light source and analyzed at the conclusion of the study, providing a measurement of the amount of dicamba present without illumination of the photolysis solution (the “dark control”).

[6] = In vitro photo-release and hydrolytic release of dicamba in an aqueous medium (Example 35); format: physicochemical; settings: 0.01 mM ester, 35° C.
Method: This Example describes the determination of photo-lability and hydrolytic lability of dicamba esters in an aqueous medium. 1 mM solutions of the esters were prepared in acetonitrile (or […] solutions of dicamba diesters). The solutions were then diluted with deionized water to a concentration of 0.01 mM (or 0.005 mM for diesters). The solutions were then transferred to quartz tubes and amber bottles and held in a growth chamber by the procedure of Example 26. A 14-hour day was generally used at a constant temperature of 35° C. Hydrolytic activity was assessed by measuring the increase in dicamba concentration after day zero in the amber (dark) bottles. […] Photolysis manifested itself as increased conversion in the quartz tubes compared to the dark control.

[7] = tested on: glyphosate-tolerant, dicamba-sensitive soy plants; assay: Humidome volatility injury to dicamba-sensitive plants (Example 31); settings: assessed after three weeks in greenhouse; for % Injury: soy plants 24 hours in closed humidome over sprayed soil (0.5% dicamba equivalent + 1.5% glyphosate), 35° C.; for Growth Stage: soy plants 24 hours in closed humidome over sprayed soil
From the text: In this case, the diglycolamine salt of dicamba (CLARITY®) was used for comparison.
Dicamba photo-labile ester formulations from Example 28 were mixed with a commercial glyphosate formulation (ROUNDUP POWERMAX®) and diluted to provide a solution with a 0.5% dicamba equivalent concentrate of the ester (or dicamba diglycolamine salt) and 1.5% concentrate of glyphosate. The mixtures were sprayed at a 10 gallon per acre (93.5 liters per hectare) rate on soil in a plastic container (“humidome”) with a transparent lid. One soil container was sprayed with water as a control. Four glyphosate-tolerant, dicamba-sensitive soy plants between V2 and V3 stage were immediately placed on the sprayed soil and the domes attached to the trays with binder clips. The soy plants were in pots placed directly on the soil but with aluminum foil wrapped around the bottom to prevent uptake of dicamba or dicamba esters through the roots.
The closed containers were held for 24 hours in a growth chamber which was maintained at 35° C. with 40% relative humidity. The plants were then removed and grown in a greenhouse for three weeks. At this time plant injury and growth stage were assessed compared to the control treated with water only.

[8] = tested on: broadleaf weeds; assay: Control of broadleaf weeds by ester concentrates (statements of the description); format: in vivo; settings: for control of a number of broadleaf weeds in field testing, in words: emulsifiable and suspension concentrates, Sesbania macrocarpa, morning glory, velvetleaf, Palmer amaranth, fat hen, sicklepod
[9] = tested on: velvetleaf; assay: Greenhouse post-emergent control of velvetleaf by emulsifiable concentrates (Example 29); format: in vivo; settings: three weeks after treatment
How it was run: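 Greenhouse velvetleaf 10–15 cm tall sprayed post-emergence with photo-labile ester emulsifiable concentrates at 140, 280, 420 and 560 g dicamba equivalent/ha, alongside dicamba diglycolamine salt at the same rates and untreated plants. Percent control scored three weeks after treatment.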

[10] = simulated sunlight 14 hours per day, 35° C.

COc1c(Cl)ccc(Cl)c1C(=O)Oc1cnc2ccccc2n1 [Ester 13a, 2-quinoxalinol ester of dicamba]
post-emergent control of morning glory compared with the dicamba salt, in words [1]: equivalent to the dicamba salt
% control, 280 g/ha, Morning glory [1]: 100%
% control, 420 g/ha, Morning glory [1]: 100%
post-emergent control of velvetleaf compared with the dicamba salt, in words [2]: nearly equivalent to the dicamba salt
% control, 280 g/ha, Velvetleaf [2]: 72%
% control, 420 g/ha, Velvetleaf [2]: 84%
post-emergent control of hemp sesbania compared with the dicamba salt, in words [3]: equivalent to the dicamba salt
% control, 280 g/ha, Hemp sesbania [3]: 95%
% control, 420 g/ha, Hemp sesbania [3]: 98%
% control, 0.25 lb/ac (0.28 kg/hectare) ([4]; 0.25 lb dicamba a.e. per acre): 46%
% control, 0.50 lb/ac (0.56 kg/hectare) ([4]; 0.50 lb dicamba a.e. per acre): 55%
Dark Control % dicamba [5]: 11%
Conversion to dicamba, 1 day [5, 10]: 28%
Conversion to dicamba, 2 days [5, 10]: 35%
Conversion to dicamba, 3 days [5, 10]: 43%
Conversion to dicamba, 5 days [5, 10]: 48%
Conversion to dicamba, 7 days [5, 10]: 61%
Conversion to dicamba, 11 days ([5]; simulated sunlight 14 hours per day, 35° C., 11 days): 66%
Conversion to dicamba, 15 days [5, 10]: 68%
Conversion to Dicamba, Dark, Day 0 ([6]; amber (dark) bottle): 8%
Conversion to Dicamba, Dark, Day 1 ([6]; amber (dark) bottle): 7%
Conversion to Dicamba, Dark, Day 2 ([6]; amber (dark) bottle): 7%
Conversion to Dicamba, Dark, Day 3 ([6]; amber (dark) bottle): 8%
Conversion to Dicamba, Dark, Day 4 ([6]; amber (dark) bottle): 8%
Conversion to Dicamba, Dark, Day 7 ([6]; amber (dark) bottle): 9%
Conversion to dicamba, Dark, Day 11 ([6]; amber (dark) bottle, Day 11): 11%
Conversion to Dicamba, Dark, Day 14 ([6]; amber (dark) bottle): 12%
Conversion to Dicamba, Light, Day 0 ([6]; quartz tube, 14-hour day): 8%
Conversion to Dicamba, Light, Day 1 ([6]; quartz tube, 14-hour day): 9%
Conversion to Dicamba, Light, Day 2 ([6]; quartz tube, 14-hour day): 12%
Conversion to Dicamba, Light, Day 3 ([6]; quartz tube, 14-hour day): 13%
Conversion to Dicamba, Light, Day 4 ([6]; quartz tube, 14-hour day): 13%
Conversion to Dicamba, Light, Day 7 ([6]; quartz tube, 14-hour day): 15%
Conversion to dicamba, Light, Day 11 ([6]; quartz tube, 14-hour day, Day 11): 19%
Conversion to Dicamba, Light, Day 14 ([6]; quartz tube, 14-hour day): 20%
% Injury [7]: 18%
Growth Stage [7]: 8
control of a number of broadleaf weeds in field testing, in words [8]: proven effective

COc1c(Cl)ccc(Cl)c1C(=O)OCCc1ccccc1[N+](=O)[O-] [Ester 2, 2-Nitrophenethyl Ester of Dicamba]
post-emergent control of morning glory compared with the dicamba salt, in words [1]: equivalent to the dicamba salt
% control, 280 g/ha, Morning glory [1]: 94%
% control, 420 g/ha, Morning glory [1]: 95%
post-emergent control of velvetleaf compared with the dicamba salt, in words [2]: equivalent to the dicamba salt
% control, 280 g/ha, Velvetleaf [2]: 85%
% control, 420 g/ha, Velvetleaf [2]: 92%
post-emergent control of hemp sesbania compared with the dicamba salt, in words [3]: equivalent to the dicamba salt
% control, 280 g/ha, Hemp sesbania [3]: 92%
% control, 420 g/ha, Hemp sesbania [3]: 97%
% Control of velvetleaf, 140 g/ha ([9]; 140 g dicamba equivalent per hectare): 50%
% Control of velvetleaf, 280 g/ha ([9]; 280 g dicamba equivalent per hectare): 69%
% Control of velvetleaf, 420 g/ha ([9]; 420 g dicamba equivalent per hectare): 78%
% Control of velvetleaf, 560 g/ha ([9]; 560 g dicamba equivalent per hectare): 90%
Dark Control % dicamba [5]: 0%
Conversion to dicamba, 1 day [5, 10]: 46%
Conversion to dicamba, 2 days [5, 10]: 54%
Conversion to dicamba, 3 days [5, 10]: 72%
Conversion to dicamba, 5 days [5, 10]: 84%
Conversion to dicamba, 7 days [5, 10]: 88%
Conversion to dicamba, 9 days ([5]; simulated sunlight 14 hours per day, 35° C., 9 days): 98%
Conversion to dicamba, 12 days ([5]; simulated sunlight 14 hours per day, 35° C., 12 days): 96%
Conversion to dicamba, 15 days [5, 10]: 95%
Conversion to Dicamba, Dark, Day 0 ([6]; amber (dark) bottle): 3%
Conversion to Dicamba, Dark, Day 1 ([6]; amber (dark) bottle): 3%
Conversion to Dicamba, Dark, Day 2 ([6]; amber (dark) bottle): 3%
Conversion to Dicamba, Dark, Day 3 ([6]; amber (dark) bottle): 3%
Conversion to Dicamba, Dark, Day 4 ([6]; amber (dark) bottle): 3%
Conversion to Dicamba, Dark, Day 7 ([6]; amber (dark) bottle): 3%
Conversion to dicamba, Dark, Day 10 ([6]; amber (dark) bottle, Day 10): 3%
Conversion to Dicamba, Dark, Day 14 ([6]; amber (dark) bottle): 3%
Conversion to Dicamba, Dark, Day 21 ([6]; amber (dark) bottle, Day 21): 3%
Conversion to Dicamba, Dark, Day 28 ([6]; amber (dark) bottle, Day 28): 3%
Conversion to Dicamba, Light, Day 0 ([6]; quartz tube, 14-hour day): 3%
Conversion to Dicamba, Light, Day 1 ([6]; quartz tube, 14-hour day): 78%
Conversion to Dicamba, Light, Day 2 ([6]; quartz tube, 14-hour day): 79%
Conversion to Dicamba, Light, Day 3 ([6]; quartz tube, 14-hour day): 75%
Conversion to Dicamba, Light, Day 4 ([6]; quartz tube, 14-hour day): 77%
Conversion to Dicamba, Light, Day 7 ([6]; quartz tube, 14-hour day): 78%
Conversion to dicamba, Light, Day 10 ([6]; quartz tube, 14-hour day, Day 10): 84%
Conversion to Dicamba, Light, Day 14 ([6]; quartz tube, 14-hour day): 82%
Conversion to Dicamba, Light, Day 21 ([6]; quartz tube, 14-hour day, Day 21): 83%
Conversion to Dicamba, Light, Day 28 ([6]; quartz tube, 14-hour day, Day 28): 86%
% Injury [7]: 13%
Growth Stage [7]: 9
control of a number of broadleaf weeds in field testing, in words [8]: proven effective
field efficacy for control of broadleaf weeds compared with the diglycolamine salt of dicamba, in words ([8]; field tests of emulsifiable concentrates): slightly more effective than the diglycolamine salt of dicamba
